Tested on: human embryonic stem cells
Assay: Metabolite profiling (LC/ESI-TOF mass spectrometry) of extracellular media of hESCs treated with alcohol
Assay type: cell-based
Conditions: ETOH 0.3, 24 H
Description: Binned masses were annotated in silico by querying the neutral masses in several different databases. These databases included Metlin, Biological Magnetic Resonance Data Bank (BMRB), NIST Chemistry WebBook, and the Human Metabolome Database. A mass was considered identified when its neutral mass was within 10 ppm of a known compound annotated in one of the databases listed above.

CCO [ETOH]
Fold: 5-Methoxytryptophan, mass 234.125, RT 47.0879: −1.632 fold | Fold: GABA analogue, mass 171.1244, RT 26.70635: 3.755 fold | Fold: Hexylamine, mass 101.1201, RT 10.21225: 2.192 fold | Fold: N-Methyl-2-pyrrolidinone, mass 99.0689, RT 15.48433: 1.468 fold | Fold: Unknown, mass 83.0372, RT 85.57399: 2.472 fold | Fold: Unknown, mass 99.1043, RT 52.01225: 3.331 fold | Fold: Unknown, mass 130.9541, RT 88.64043: 2.025 fold | Fold: Unknown, mass 148.0052, RT 3.958833: −1.73 fold | Fold: Unknown, mass 153.0811, RT 27.80141: −1.6976 fold | Fold: Unknown, mass 161.0805, RT 14.22357: −6.435 fold | Fold: Unknown, mass 178.5546, RT 28.52393: −2.764 fold | Fold: Unknown, mass 194.0836, RT 22.61355: −1.703 fold | Fold: Unknown, mass 222.0401, RT 27.57188: −2.112 fold | Fold: Unknown, mass 223.119, RT 13.6845: −2.74 fold | Fold: Unknown, mass 229.2025, RT 32.9941: −1.377 fold | Fold: Unknown, mass 237.0041, RT 3.673694: 2.989 fold | Fold: Unknown, mass 239.9592, RT 5.176232: 1.64 fold | Fold: Unknown, mass 267.2543, RT 40.75868: −1.496 fold | Fold: Unknown, mass 271.9364, RT 4.86619: 4.07 fold | Fold: Unknown, mass 275.1193, RT 22.86183: −2.237 fold | Fold: Unknown, mass 288.2632, RT 75.76147: 1.969 fold | Fold: Unknown, mass 294.1531, RT 24.21651: −1.892 fold | Fold: Unknown, mass 298.1537, RT 66.35884: 3.758 fold | Fold: Unknown, mass 299.1929, RT 19.66398: −1.571 fold | Fold: Unknown, mass 303.8875, RT 4.954547: 2.07 fold | Fold: Unknown, mass 313.199, RT 44.09424: 2.292 fold | Fold: Unknown, mass 324.1666, RT 30.19245: −1.593 fold | Fold: Unknown, mass 337.2012, RT 8.542672: 1.287 fold | Fold: Unknown, mass 340.9252, RT 5.033976: −1.836 fold | Fold: Unknown, mass 342.1482, RT 68.02448: −1.853 fold | Fold: Unknown, mass 360.1321, RT 18.50245: −2.289 fold | Fold: Unknown, mass 362.2787, RT 83.72506: −2.542 fold | Fold: Unknown, mass 378.2956, RT 41.28494: 1.636 fold | Fold: Unknown, mass 393.1889, RT 15.90129: −1.511 fold | Fold: Unknown, mass 440.0284, RT 54.46495: 2.51 fold | Fold: Unknown, mass 444.2237, RT 51.58546: 2.242 fold | Fold, Unknown metabolite, Mass 820.8181 (retention time 4.613879): −1.851 | Fold, Unknown metabolite, Mass 711.8344 (retention time 4.826824): −2.256 | Fold, Unknown metabolite, Mass 913.8074 (retention time 5.217833): −1.885 | Fold, Unknown metabolite, Mass 888.8041 (retention time 5.259716): 1.222 | Fold, Unknown metabolite, Mass 922.0048 (retention time 5.387775): −2.755 | Fold, Unknown metabolite, Mass 555.8505 (retention time 5.742094): −1.518 | Fold, metabolite Ethanesulfonic acid, Mass 579.2519 (retention time 5.903169): −1.48 | Fold, metabolite Oxidized glutathione, Mass 612.1509 (retention time 8.056862): −1.595 | Fold, Unknown metabolite, Mass 485.204 (retention time 10.8217): 2.038 | Fold, Unknown metabolite, Mass 482.1942 (retention time 10.82859): −1.528 | Fold, Unknown metabolite, Mass 666.3836 (retention time 16.3338): −1.371 | Fold, metabolite L-Urobilinogen, Mass 596.3543 (retention time 25.14927): 1.835 | Fold, Unknown metabolite, Mass 464.225 (retention time 25.3287): −1.717 | Fold, Unknown metabolite, Mass 455.2052 (retention time 28.27806): −2.509 | Fold, Unknown metabolite, Mass 447.2509 (retention time 29.86415): 2.103 | Fold, Unknown metabolite, Mass 444.2789 (retention time 30.05687): −1.835 | Fold, Unknown metabolite, Mass 707.3933 (retention time 30.43889): −1.792 | Fold, Unknown metabolite, Mass 466.2921 (retention time 30.46172): −1.959 | Fold, Unknown metabolite, Mass 488.305 (retention time 30.83472): −2.185 | Fold, Unknown metabolite, Mass 488.8071 (retention time 30.88032): −1.92 | Fold, Unknown metabolite, Mass 510.3182 (retention time 31.20706): −2.264 | Fold, Unknown metabolite, Mass 510.8202 (retention time 31.22083): −2.045 | Fold, Unknown metabolite, Mass 523.8187 (retention time 31.53434): −2.173 | Fold, Unknown metabolite, Mass 591.3789 (retention time 31.54325): −1.982 | Fold, Unknown metabolite, Mass 532.8335 (retention time 31.58889): −2.169 | Fold, Unknown metabolite, Mass 554.3444 (retention time 31.8519): −2.37 | Fold, Unknown metabolite, Mass 554.8471 (retention time 31.891): −2.297 | Fold, Unknown metabolite, Mass 576.3582 (retention time 32.15777): −2.209 | Fold, Unknown metabolite, Mass 541.3274 (retention time 32.24719): −2.123 | Fold, Unknown metabolite, Mass 611.871 (retention time 32.70236): −2.192 | Fold, Unknown metabolite, Mass 620.8861 (retention time 32.73907): −2.321 | Fold, Unknown metabolite, Mass 642.397 (retention time 32.95522): −2.211 | Fold, Unknown metabolite, Mass 677.9101 (retention time 33.48766): −2.647 | Fold, Unknown metabolite, Mass 463.2914 (retention time 33.5733): −1.665 | Fold, Unknown metabolite, Mass 466.615 (retention time 33.68894): −3.279 | Fold, Unknown metabolite, Mass 774.4767 (retention time 34.33545): −2.342 | Fold, Unknown metabolite, Mass 521.9924 (retention time 34.35986): −1.584 | Fold, Unknown metabolite, Mass 751.4193 (retention time 35.028): −1.703 | Fold, metabolite Neu5Acalpha2-3Galbeta1-4Glcbeta-Sp, Mass 702.2497 (retention time 40.84822): 1.283 | Fold, Unknown metabolite, Mass 449.2611 (retention time 44.98056): −3.471 | Fold, Unknown metabolite, Mass 467.3804 (retention time 46.51446): −2.135 | Fold, Unknown metabolite, Mass 518.3914 (retention time 46.57666): −2.707 | Fold, Unknown metabolite, Mass 539.4374 (retention time 51.52268): −1.93 | Fold, Unknown metabolite, Mass 446.0431 (retention time 54.8719): −2.221 | Fold, Unknown metabolite, Mass 707.4296 (retention time 56.18269): −2.434 | Fold, Unknown metabolite, Mass 611.4952 (retention time 56.3513): −1.9811 | Fold, Unknown metabolite, Mass 765.5211 (retention time 69.32865): 1.884 | Fold, Unknown metabolite, Mass 482.3062 (retention time 72.7735): −2.618

From patent US8703483B2, “Reagents and methods for using human embryonic stem cells to evaluate toxicity of pharmaceutical compounds and other chemicals” (Wisconsin Alumni Research Foundation, priority 2006, dated 2014)
